# Source: patent publication US11925645B2, “Enhanced caffeinated beverage composition” (Ortho-Nutra, LLC, priority 2013, dated 2024)
# Legend:
# [1] = tested on: biomarkers of inflammation; assay: Biomarkers of inflammation in humans; format: in vivo, human; conditions: acute inflammatory stressors or chronic consumption
# Excerpt: Theacrine itself can reduce biomarkers of inflammation in humans in response to acute inflammatory stressors (e.g., intense exercise) or chronic consumption. Theacrine is shown to decrease C-reactive protein (CRP), Erythrocyte sedimentation rate (ESR), interleukin-6 (IL-6) and TNF-alpha.
# [2] = Theacrine-caffeine interaction study: heart rate, blood pressure, rate pressure product, tolerability; conditions: at the doses tested, administered alone or in combination
# Excerpt: Study Design and Procedures. […] Theacrine, administered as iTeaCrine.®, was provided by Compound Solutions (Carlsbad, Calif). […] Treatment sequence was randomized using a 4×4 Latin square. There was an approximate 1-week washout period between treatments for all subjects.
# Test Visit Procedures. […] A catheter was inserted into the forearm vein for blood sampling. Duplicate measurements of resting heart rate and blood pressure were taken pre-dose and prior to each timed blood sample. In addition, respiratory rate was counted in one minute and body temperature was measured using an ear scanning thermometer (dual readings taken at each time).
# Differences between treatment group values were determined for systolic blood pressure (SBP), diastolic blood pressure (DBP), rate pressure product, and heart rate. Parametric data were analyzed by paired Student's t tests of mean differences in values between treatment groups. Statistical significance was defined a priori as a 2-sided or <0.05.
# [3] = cited from earlier work
# [4] = Fourteen day study of repetitive dosing of theacrine and caffeine: psychometric indices; format: in vivo, human
# [5] = 7-day open-label repeated dose study of TC (N=6): VAS subjective measures; format: in vivo, human; conditions: 200 mg dose of theacrine over 7 days
# Procedure: A subset of 6 subjects underwent a separate 7-day, open-label, repeated dose study comparing 100 mg, 200 mg and 400 mg of TC. The experiment was a randomized, placebo-controlled, double-blind, within-subject crossover clinical trial (for N=15 study). A further subset study was open-label, sub-acute (7-day), repetitive dosing trial (for N=6 subset). Six (6) subjects provided written and dated informed consent to participate in the 7-day repetitive dosing study between Dec. 15, 2012 and Feb. 21, 2013. A separate cohort of fifteen (15) subjects provided written and dated informed consent for the acute dose, placebo-controlled, crossover clinical trial. All subjects were in good health as determined by physical examination and medical history, between the ages of 18 and 45 (inclusive). […] Subjects were willing and able to comply with the experimental and supplement protocol. Physical activity levels and health history were determined using standardized questionnaires. Heart rate and blood pressure were measured using an Omron HEM-780. Standing height was determined using a wall-mounted stadiometer. […] Medical Scale. A 100 mm anchored VAS questionnaire for energy, fatigue, and concentration was distributed at each acute lab session; additional VAS questionnaires were distributed for the daily assessment over a 6-hour period during the 7-day subset study. Quest Diagnostics (Pittsburgh, Pa.) was utilized to transport and analyze all blood samples.
# [6] = Acute TeaCrine crossover trial: hemodynamics and side effect profiles; format: in vivo, human
# Procedure: Anchored VAS questionnaires were used to detect changes in various aspects of physical and mental energy and performance; side effect profiles, hemodynamics and biochemical markers of safety were also collected over a 3-hr post-dosing period. A subset of 6 subjects underwent a separate 7-day, open-label, repeated dose study comparing 100 mg, 200 mg and 400 mg of TC.
# Physical activity levels and health history were determined using standardized questionnaires. Heart rate and blood pressure were measured using an Omron HEM-780. Standing height was determined using a wall-mounted stadiometer. […] Medical Scale. A 100 mm anchored VAS questionnaire for energy, fatigue, and concentration was distributed at each acute lab session; additional VAS questionnaires were distributed for the daily assessment over a 6-hour period during the 7-day subset study. Quest Diagnostics (Pittsburgh, Pa.) was utilized to transport and analyze all blood samples. For each laboratory session, subjects reported to the lab well hydrated, 10-12 hours postprandial, and at least 24-hours after their last exercise session.
# Statistical Analyses for Example 1. Descriptive statistics (mean, median, SD, 95% CIs) were used to quantify subjects physical characteristics. […] Effect sizes were also calculated. […]
compound,measurement,setting,value
"Cn1c(=O)c2c(n(C)c1=O)n(C)c(=O)n2C [Theacrine, 1,3,7,9-tetramethylpurine-2,6,8-trione]",C-reactive protein (CRP),[1],decrease
same,Erythrocyte sedimentation rate (ESR),[1],decrease
same,TNF-alpha,[1],decrease
same,interleukin-6 (IL-6),[1],decrease
same,"effect on baseline hemodynamic parameters, e.g. heart rate and blood pressure",[2],no effect
same,sensitization or pharmacodynamic tolerance,[3]; repeat dose theacrine studies,absence of either sensitization or pharmacodynamic tolerance
same,"safety, adverse effects on hemodynamic parameters",[3]; theacrine supplementation up to 400 mg/day for 8 weeks,appears to be safe
same,anxiety,[4],decreased anxiety
same,"psychometric indices of energy, focus, concentration, motivation and mood",[4],still maintained elevated
same,anxiety (FIG. 6),[5],decreased substantially
same,concentration (FIG. 7),[5],increased substantially
same,energy (FIG. 7),[5],increased substantially
same,fatigue (FIG. 6),[5],decreased substantially
same,libido (FIG. 6),[5],increased substantially
same,motivation to exercise (FIG. 7),[5],increased substantially
same,changes in systemic hemodynamics or side effect profiles,"[6]; 200 mg dose of TC, 3-hr post-dosing period",No changes
same,systemic hemodynamics: systolic and diastolic blood pressure (FIGS. 4 and 5),[6]; various time intervals after administration,no substantial change
